One molecule from ChEMBL document CHEMBL3763027, “Identification and characterization of potent, selective and metabolically stable IKKβ inhibitor” (Bioorg Med Chem Lett, 2016) can be followed below.

Activity calls are given as the source filed them. No cut-off for these calls is given here.

Data set [1] has as its target Mitogen-activated protein kinase 1 (Homo sapiens) (UniProt P28482). Description: Inhibition of ERK2/MAPK2 (unknown origin) at 10 uM.
The subject of data set [2] is Mus musculus. Nature of the data set: Toxicity in female ICR mouse assessed as average body weight at 2000 mg/kg, po administered for 7 days measured 3 hrs post last dose (reference value: 18.9 +/- 0.9 g). In kind it is organism-based. The note with it: in vivo.
The target in data set [3] is T1, Inhibitor of nuclear factor kappa-B kinase subunit beta (Homo sapiens) (UniProt O14920).
T1 sequence (whole entry): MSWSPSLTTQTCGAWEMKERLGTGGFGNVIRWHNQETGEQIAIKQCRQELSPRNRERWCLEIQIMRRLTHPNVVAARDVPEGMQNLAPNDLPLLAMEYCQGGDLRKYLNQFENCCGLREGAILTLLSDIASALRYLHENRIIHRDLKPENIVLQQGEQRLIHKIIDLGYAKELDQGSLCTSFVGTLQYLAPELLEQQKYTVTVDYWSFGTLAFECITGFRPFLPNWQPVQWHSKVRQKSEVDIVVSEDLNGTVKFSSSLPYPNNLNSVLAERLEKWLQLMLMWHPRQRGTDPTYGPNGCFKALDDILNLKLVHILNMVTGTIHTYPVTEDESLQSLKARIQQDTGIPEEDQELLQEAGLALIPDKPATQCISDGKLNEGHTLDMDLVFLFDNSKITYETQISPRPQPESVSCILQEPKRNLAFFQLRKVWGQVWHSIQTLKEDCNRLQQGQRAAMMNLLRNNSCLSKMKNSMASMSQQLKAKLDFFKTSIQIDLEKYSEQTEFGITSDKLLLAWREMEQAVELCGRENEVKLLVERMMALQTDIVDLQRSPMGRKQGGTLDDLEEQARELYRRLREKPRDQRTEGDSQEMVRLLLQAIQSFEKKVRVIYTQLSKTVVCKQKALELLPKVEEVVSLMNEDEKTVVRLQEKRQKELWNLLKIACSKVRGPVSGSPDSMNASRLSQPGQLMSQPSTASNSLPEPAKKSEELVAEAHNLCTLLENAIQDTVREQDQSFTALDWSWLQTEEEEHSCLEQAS
Nature of the data set: Non-competitive inhibition of IKKbeta (unknown origin) using FAM-IkBalpha derived peptide as substrate at 0.5 to 1 uM incubated for 1 hr measured after 15 hrs by Lineweaver-Burk plot method in the presence of 0.625 to 10 uM ATP.

Data set [4] in a line: Volume of distribution in Sprague-Dawley rat at 1 mg/kg, iv after 0.25 to 24 hrs. In kind it is ADME, organism-based. The settings on record: in vivo.
For data set [5], the system named is Mus musculus. Description: Toxicity in male ICR mouse assessed as average body weight at 2000 mg/kg, po administered on day 1 measured 3 hrs post dose (reference value: 20.3 +/- 0.4 g). The class given is organism-based. The note with it: in vivo.
Data set [6] has as its target CDK9/cyclin T1 (Homo sapiens) (UniProt O60563+P50750). Description: Inhibition of CDK9/cyclin T1 (unknown origin) at 10 uM. In kind it is protein-complex assay.
The target of data set [7] is 3-phosphoinositide-dependent protein kinase 1 (Homo sapiens) (UniProt O15530). Nature of the data set: Inhibition of PDK1 (unknown origin) at 10 uM.
3-phosphoinositide-dependent protein kinase 1 (Homo sapiens), sequence (O15530 whole entry): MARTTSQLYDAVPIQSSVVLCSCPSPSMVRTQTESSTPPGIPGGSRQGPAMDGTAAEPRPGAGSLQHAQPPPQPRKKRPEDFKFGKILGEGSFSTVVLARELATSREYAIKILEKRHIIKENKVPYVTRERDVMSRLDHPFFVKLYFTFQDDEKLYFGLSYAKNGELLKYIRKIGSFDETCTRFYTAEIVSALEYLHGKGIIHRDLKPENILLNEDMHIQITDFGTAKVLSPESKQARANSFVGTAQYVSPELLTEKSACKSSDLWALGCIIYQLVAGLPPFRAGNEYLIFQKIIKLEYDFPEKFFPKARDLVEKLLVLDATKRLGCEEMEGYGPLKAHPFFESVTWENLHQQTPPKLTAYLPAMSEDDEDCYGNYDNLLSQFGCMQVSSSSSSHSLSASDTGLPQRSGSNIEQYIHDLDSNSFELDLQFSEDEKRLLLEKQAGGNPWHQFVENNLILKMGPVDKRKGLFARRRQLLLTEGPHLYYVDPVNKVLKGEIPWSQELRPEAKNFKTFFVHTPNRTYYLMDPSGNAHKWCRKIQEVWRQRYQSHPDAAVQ
For data set [8], the target named is Mitogen-activated protein kinase 14 (Homo sapiens) (UniProt Q16539). Description: Inhibition of MAPK14 (unknown origin) at 10 uM.
Mitogen-activated protein kinase 14 (Homo sapiens), sequence (Q16539 whole entry): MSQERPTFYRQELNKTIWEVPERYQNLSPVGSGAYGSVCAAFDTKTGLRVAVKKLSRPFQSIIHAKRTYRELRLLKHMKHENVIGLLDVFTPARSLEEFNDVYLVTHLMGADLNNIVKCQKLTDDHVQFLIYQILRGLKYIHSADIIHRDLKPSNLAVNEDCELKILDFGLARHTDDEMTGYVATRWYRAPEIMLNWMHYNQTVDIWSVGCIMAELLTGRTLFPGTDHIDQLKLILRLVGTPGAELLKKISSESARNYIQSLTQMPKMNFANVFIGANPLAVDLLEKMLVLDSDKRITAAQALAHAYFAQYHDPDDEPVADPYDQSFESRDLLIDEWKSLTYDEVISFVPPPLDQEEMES
The target in data set [9] is T1, Inhibitor of nuclear factor kappa-B kinase subunit beta (Homo sapiens). Nature of the data set: Inhibition of IKKbeta (unknown origin) at 10 uM by TR-FRET assay. In general terms: TR-FRET usually uses a lanthanide donor and a delayed reading to cut background.
The target of data set [10] is Aurora kinase B (Homo sapiens) (UniProt Q96GD4). Nature of the data set: Inhibition of Aurora B (unknown origin) at 10 uM.
Aurora kinase B (Homo sapiens), sequence (Q96GD4 whole entry): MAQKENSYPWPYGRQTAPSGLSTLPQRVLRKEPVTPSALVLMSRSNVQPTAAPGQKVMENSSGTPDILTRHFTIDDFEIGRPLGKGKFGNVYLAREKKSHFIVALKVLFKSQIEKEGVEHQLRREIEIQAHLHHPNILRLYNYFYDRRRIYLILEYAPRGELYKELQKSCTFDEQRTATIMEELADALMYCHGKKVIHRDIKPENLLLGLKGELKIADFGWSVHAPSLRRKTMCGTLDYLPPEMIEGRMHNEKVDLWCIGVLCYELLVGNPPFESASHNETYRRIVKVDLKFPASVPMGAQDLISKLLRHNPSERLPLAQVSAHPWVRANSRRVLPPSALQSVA
In data set [11] the test system is Mus musculus. Nature of the data set: Toxicity in male ICR mouse assessed as average body weight at 2000 mg/kg, po administered for 7 days measured 3 hrs post last dose (reference value: 20.3 +/- 0.4 g). In kind it is organism-based. The note with it: in vivo.
Data set [12] has as its target Casein kinase II subunit alpha (Homo sapiens) (UniProt P68400). Nature of the data set: Inhibition of CK2alpha (unknown origin) at 10 uM.
The target in data set [13] is Mitogen-activated protein kinase 10 (Homo sapiens) (UniProt P53779). Description: Inhibition of JNK3 (unknown origin) at 10 uM.
Mitogen-activated protein kinase 10 (Homo sapiens), sequence (P53779 whole entry): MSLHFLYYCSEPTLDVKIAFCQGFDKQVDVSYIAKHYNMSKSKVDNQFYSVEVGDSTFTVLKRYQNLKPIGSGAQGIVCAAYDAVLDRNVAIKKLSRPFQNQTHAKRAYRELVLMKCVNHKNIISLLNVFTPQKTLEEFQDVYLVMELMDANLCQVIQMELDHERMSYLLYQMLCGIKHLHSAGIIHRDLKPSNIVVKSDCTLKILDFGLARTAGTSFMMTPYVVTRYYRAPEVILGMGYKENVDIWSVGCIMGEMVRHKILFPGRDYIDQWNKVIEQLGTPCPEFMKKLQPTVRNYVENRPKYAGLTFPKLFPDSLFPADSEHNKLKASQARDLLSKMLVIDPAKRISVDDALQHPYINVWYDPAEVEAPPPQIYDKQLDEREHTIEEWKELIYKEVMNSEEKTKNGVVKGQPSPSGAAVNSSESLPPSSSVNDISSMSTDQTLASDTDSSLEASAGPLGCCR
Data set [14] deals with Cyclin-dependent kinase 4/cyclin D1 (Homo sapiens) (UniProt P11802+P24385). Description: Inhibition of CDK4/cyclin D1 (unknown origin) at 10 uM. In kind it is protein-complex assay.
The target of data set [15] is Serine/threonine-protein kinase pim-2 (Homo sapiens) (UniProt Q9P1W9). Nature of the data set: Inhibition of PIM2 (unknown origin) at 10 uM.
Serine/threonine-protein kinase pim-2 (Homo sapiens), sequence (Q9P1W9 whole entry, looked up): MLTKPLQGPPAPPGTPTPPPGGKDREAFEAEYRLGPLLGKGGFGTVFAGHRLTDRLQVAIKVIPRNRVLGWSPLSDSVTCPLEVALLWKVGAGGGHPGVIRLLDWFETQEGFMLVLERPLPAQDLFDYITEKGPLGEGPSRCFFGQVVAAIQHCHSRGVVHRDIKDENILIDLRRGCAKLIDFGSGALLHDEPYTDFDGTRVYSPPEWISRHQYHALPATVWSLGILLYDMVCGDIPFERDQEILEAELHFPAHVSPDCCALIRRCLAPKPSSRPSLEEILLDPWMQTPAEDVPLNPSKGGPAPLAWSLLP
Data set [16] can be described thus: Half life in Sprague-Dawley rat at 2 mg/kg, po after 0.25 to 24 hrs. The class given is ADME, organism-based. The note with it: in vivo.
Data set [17] concerns the target Inhibitor of nuclear factor kappa-B kinase subunit alpha (Homo sapiens) (UniProt O15111). Description: Inhibition of IKKalpha (unknown origin) at 10 uM.

Casein kinase II subunit alpha (Homo sapiens), sequence (P68400 whole entry, looked up): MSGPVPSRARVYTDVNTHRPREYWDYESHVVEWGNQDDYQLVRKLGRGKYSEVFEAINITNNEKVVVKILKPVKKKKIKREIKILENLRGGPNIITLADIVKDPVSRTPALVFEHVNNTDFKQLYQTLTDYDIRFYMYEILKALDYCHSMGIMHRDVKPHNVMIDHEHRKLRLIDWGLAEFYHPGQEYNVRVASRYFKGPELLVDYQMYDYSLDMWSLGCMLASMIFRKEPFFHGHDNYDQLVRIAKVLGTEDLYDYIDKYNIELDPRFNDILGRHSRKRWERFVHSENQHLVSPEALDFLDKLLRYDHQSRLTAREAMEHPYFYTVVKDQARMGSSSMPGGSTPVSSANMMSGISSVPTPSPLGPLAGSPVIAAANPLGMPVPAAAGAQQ
Mitogen-activated protein kinase 1 (Homo sapiens), sequence (P28482 whole entry, looked up): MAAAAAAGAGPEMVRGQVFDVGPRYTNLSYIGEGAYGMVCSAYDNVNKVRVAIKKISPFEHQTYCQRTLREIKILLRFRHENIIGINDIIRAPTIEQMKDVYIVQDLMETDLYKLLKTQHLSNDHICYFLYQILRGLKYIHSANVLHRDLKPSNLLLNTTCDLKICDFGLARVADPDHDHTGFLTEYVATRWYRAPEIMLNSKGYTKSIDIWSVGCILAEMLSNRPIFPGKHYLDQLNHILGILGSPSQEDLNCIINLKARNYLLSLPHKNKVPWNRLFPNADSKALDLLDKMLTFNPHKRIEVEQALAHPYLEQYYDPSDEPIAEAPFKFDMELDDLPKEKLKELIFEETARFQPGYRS
Inhibitor of nuclear factor kappa-B kinase subunit alpha (Homo sapiens), sequence (O15111 whole entry): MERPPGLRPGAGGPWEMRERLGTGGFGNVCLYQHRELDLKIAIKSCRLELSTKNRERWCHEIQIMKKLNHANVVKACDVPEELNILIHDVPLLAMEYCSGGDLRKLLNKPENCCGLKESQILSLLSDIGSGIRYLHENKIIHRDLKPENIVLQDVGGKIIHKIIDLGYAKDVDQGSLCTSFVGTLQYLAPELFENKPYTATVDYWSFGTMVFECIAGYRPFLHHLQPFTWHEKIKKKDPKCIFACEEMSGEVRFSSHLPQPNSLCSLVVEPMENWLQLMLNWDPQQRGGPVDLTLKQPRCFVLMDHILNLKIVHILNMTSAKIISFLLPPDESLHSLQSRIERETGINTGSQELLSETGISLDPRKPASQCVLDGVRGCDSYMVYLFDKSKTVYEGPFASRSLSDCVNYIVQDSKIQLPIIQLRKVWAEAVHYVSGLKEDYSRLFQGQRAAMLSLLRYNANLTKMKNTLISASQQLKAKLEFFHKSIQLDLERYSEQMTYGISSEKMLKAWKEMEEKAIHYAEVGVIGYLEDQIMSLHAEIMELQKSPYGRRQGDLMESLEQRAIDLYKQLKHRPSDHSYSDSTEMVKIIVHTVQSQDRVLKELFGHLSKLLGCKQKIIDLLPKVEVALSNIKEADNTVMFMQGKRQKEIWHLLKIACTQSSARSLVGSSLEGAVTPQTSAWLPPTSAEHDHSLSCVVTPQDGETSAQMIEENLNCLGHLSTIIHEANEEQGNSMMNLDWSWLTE

Broadly, the inhibition is the change of the read-out against control, counted positive when it falls. In general, Vd refers to the apparent volume that relates the amount in the body to the concentration in plasma or blood. High values mean extensive tissue distribution, low ones confinement near the circulation. For orientation: half-life means the time in which the quantity being followed falls by half. A lower half-life goes with rapid decline. Consider `CN1CCN(CCCOc2ccc(N3C(=O)/C(=C/c4ccc(Oc5ccc(F)cc5)cc4)SC3=S)cc2)CC1`, for which the inhibition in data set [1] came out at 6.8%; in data set [6] it was 0%; in data set [7], 0%; in data set [8] it was 14.8%; in [9], 93.3%; in data set [10], 0%. The inhibition turned out to be 0% in data set [12]; 0% in data set [13]; 17.3% in [14]; 0% in data set [15]; 0% in [17]. Besides, the Activity with Mus musculus [2] was 28.9 g; with Mus musculus [5], 21.5 g; in the data set with Mus musculus [11] it was 26.2 g. In addition, in data set [3], the inhibition entry is “Active”. Further, in data set [4], the Vd is 44.3 L/kg. In data set [16], this molecule had a half-life of 349 min.
